# In US12091405B2, “Substituted pyrazole compounds as indoleamine 2,3-dioxygenase inhibitors” (Merck Sharp & Dohme LLC, priority 2018, dated 2024):
# pIC50: −log10 of the molar value.
# Target: IDO1 (Homo sapiens, UniProt P14902)
# Experiment: IDO1 Cellular Assay in HeLa Cells Stimulated with IFNγ
# Assay type: cell-based
# Conditions: IFNγ 100 ng/mL, 300 uM L-tryptophan, about 48 hours, fluorescence readout, read-out: IDO1 HELA Cell Assay, IC50
# Sequence of IDO1 (P14902 whole entry): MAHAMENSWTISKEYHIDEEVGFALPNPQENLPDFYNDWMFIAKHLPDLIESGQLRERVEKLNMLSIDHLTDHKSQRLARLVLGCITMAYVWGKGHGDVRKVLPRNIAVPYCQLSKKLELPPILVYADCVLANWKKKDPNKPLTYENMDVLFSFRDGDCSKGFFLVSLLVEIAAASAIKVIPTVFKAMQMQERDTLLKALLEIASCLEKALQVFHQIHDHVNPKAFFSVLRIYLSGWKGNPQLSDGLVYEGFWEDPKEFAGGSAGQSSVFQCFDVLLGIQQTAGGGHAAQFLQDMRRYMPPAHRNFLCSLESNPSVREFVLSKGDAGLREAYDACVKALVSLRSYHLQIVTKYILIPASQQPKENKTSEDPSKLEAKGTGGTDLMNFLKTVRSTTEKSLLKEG
row,pIC50,Structure (SMILES)
1,7.41,"COc1c(F)cc(F)cc1C1CCN(C(=O)Cn2nc(C(=O)N3C[C@@H](C)O[C@@H](C)C3)c3c2CCC3)CC1 [Example 110, 1-[4-(3,5-difluoro-2-methoxyphenyl)piperidin-1-yl]-2-{3-[(2R,6S)-2,6-dimethylmorpholine-4-carbonyl]-5,6-dihydrocyclopenta[c]pyrazol-1(4H)-yl}ethan-1-one]"
2,7.39,"Cc1ccc(C2CCN(C(=O)Cn3nc(C(=O)N4C[C@@H](C)O[C@@H](C)C4)c4c3CCC4)CC2)cc1Cl [Example 111, 1-[4-(3-chloro-4-methylphenyl)piperidin-1-yl]-2-{3-[(2R,6S)-2,6-dimethylmorpholine-4-carbonyl]-5,6-dihydrocyclopenta[c]pyrazol-1(4H)-yl}ethan-1-one]"
3,7.39,"C[C@@H]1CN(C(=O)c2nn(CC(=O)N3CCC(c4ccc(Cl)c(F)c4)CC3)c3c2CCC3)C[C@H](C)O1 [Example 112, 1-[4-(4-chloro-3-fluorophenyl)piperidin-1-yl]-2-{3-[(2R,6S)-2,6-dimethylmorpholine-4-carbonyl]-5,6-dihydrocyclopenta[c]pyrazol-1(4H)-yl}ethan-1-one]"
4,7.37,"C[C@@H]1CN(C(=O)c2nn(CC(=O)N3CCC(c4ccccc4C4CC4)CC3)c3c2CCC3)C[C@H](C)O1 [Example 113, 1-[4-(2-cyclopropylphenyl)piperidin-1-yl]-2-{3-[(2R,6S)-2,6-dimethylmorpholine-4-carbonyl]-5,6-dihydrocyclopenta[c]pyrazol-1(4H)-yl}ethan-1-one]"
5,7.34,"C[C@@H]1CN(C(=O)c2nn(CC(=O)N3CCC(c4ccc(Cl)cc4)CC3)c3c2CCC3)C[C@H](C)O1 [Example 114, 1-[4-(4-chlorophenyl)piperidin-1-yl]-2-{3-[(2R,6S)-2,6-dimethylmorpholine-4-carbonyl]-5,6-dihydrocyclopenta[c]pyrazol-1(4H)-yl}ethan-1-one]"
6,7.31,"COc1c(F)cccc1C1CCN(C(=O)Cn2nc(C(=O)N3C[C@@H](C)O[C@@H](C)C3)c3c2CCC3)CC1 [Example 115, 2-{3-[(2R,6S)-2,6-dimethylmorpholine-4-carbonyl]-5,6-dihydrocyclopenta[c]pyrazol-1(4H)-yl}-1-[4-(3-fluoro-2-methoxyphenyl)piperidin-1-yl]ethan-1-one]"
7,7.31,"Cc1cc(C2CCN(C(=O)Cn3nc(C(=O)N4C[C@@H](C)O[C@@H](C)C4)c4c3CCC4)CC2)cc(C)c1Cl [Example 116, 1-[4-(4-chloro-3,5-dimethylphenyl)piperidin-1-yl]-2-{3-[(2R,6S)-2,6-dimethylmorpholine-4-carbonyl]-5,6-dihydrocyclopenta[c]pyrazol-1(4H)-yl}ethan-1-one]"
8,7.31,"C[C@@H]1CN(C(=O)c2nn(CC(=O)N3CCC(c4cc(F)cc(F)c4F)CC3)c3c2CCC3)C[C@H](C)O1 [Example 117, 2-{3-[(2R,6S)-2,6-dimethylmorpholine-4-carbonyl]-5,6-dihydrocyclopenta[c]pyrazol-1(4H)-yl}-1-[4-(2,3,5-trifluorophenyl)piperidin-1-yl]ethan-1-one]"
9,7.30,"C[C@@H]1CN(C(=O)c2nn(CC(=O)N3CCC(c4cccc(F)c4C(F)(F)F)CC3)c3c2CCC3)C[C@H](C)O1 [Example 118, 2-{3-[(2R,6S)-2,6-dimethylmorpholine-4-carbonyl]-5,6-dihydrocyclopenta[c]pyrazol-1(4H)-yl}-1-{4-[3-fluoro-2-(trifluoromethyl)phenyl]piperidin-1-yl}ethan-1-one]"
10,7.28,"Cc1ccc(F)c(C2CCN(C(=O)Cn3nc(C(=O)N4C[C@@H](C)O[C@@H](C)C4)c4c3CCC4)CC2)c1 [Example 119, 2-{3-[(2R,6S)-2,6-dimethylmorpholine-4-carbonyl]-5,6-dihydrocyclopenta[c]pyrazol-1(4H)-yl}-1-[4-(2-fluoro-5-methylphenyl)piperidin-1-yl]ethan-1-one]"
